Assays:
Wistar rats [1] = settings: general statement on standards; cited from earlier work
male NIH Swiss mice [2] = assay: Marble burying assay (with rotorod); format: in vivo, mouse; settings: 30 min. burying session
Excerpt: Marble burying in mice has been used to model anxiety disorders including obsessive-compulsive disorders (OCD) due to ethological study of the behavior (e.g. Gyertyan I. “Analysis of the marble burying response: Marbles serve to measure digging rather than evoke burying”, Behavioural Pharmacology 6: 24-31, (1995)) and due to the pharmacological effects of clinical standards (c.f., Njung′E K. Handley S L. “Evaluation of marble-burying behavior as a model of anxiety”, Pharmacology, Biochemistry & Behavior. 38: 63-67, (1991)); Borsini F., Podhorna J., and Marazziti, D. “Do animal models of anxiety predict anxiolytic effects of antidepressants?”, Psychopharmacology 163: 121-141, (2002)). Thus, drugs used in the treatment of generalized anxiety in humans (e.g. benzodiazepines) as well as compounds used to treat OCD (e.g. SSRIs like fluoxetine) decrease burying.
House experimentally-naïve male, NIH Swiss mice (Harlan Sprague-Dawley, Indianapolis, Ind.) weighing between 28-35 g in groups of 12 for at least three days prior to testing in a vivarium with 12 hr. light and dark cycles. Conduct experiments during the light cycle in a dimly lit experimental testing room. Dose mice with vehicle or compound and, after a specified pretreatment interval (generally 30 min.), place each mouse individually on a rotorod (Ugo Basile 7650) operating at a speed of 6 revolutions/min. and observe for falling. After 2 min. on the rotorod, place the mice individually in a 17×28×12 cm high plastic tub with 5 mm sawdust shavings on the floor that are covered with 20 blue marbles (1.5 cm diameter) placed in the center. After 30 min., count the number of marbles buried (⅔ covered with sawdust). Assess the compound's effect on marble burying with Dunnett's test and the effect on rotorod performance by Fisher's exact test.
Clinically effective standard compounds suppress marble burying at doses that are devoid of motor-impairing effects as measured on the rotorod. […]

Wistar rats [3] = assay: Schedule-induced polydipsia; format: in vivo, rat
Excerpt: Food-deprived rats exposed to intermittent presentations of food will drink amounts of water that are far in excess of their normal daily intake and in excess of their intake when given all of their food at one time (Falk J L. “Production of polydipsia in normal rats by an intermittent food schedule”, Science 133: 195-196, (1961)). This excessive behavior is persistent and has been used to model OCD.
Maintain Wistar rats on a food restricted diet (to maintain 85% free feeding weight), but with free access to water. Train the rats in a behavioral testing chamber to press a lever to receive a food pellet under a fixed interval schedule, such that the rats are rewarded with a 45 mg food pellet the first time they press a lever after a 120 second interval has elapsed. The fixed interval is then reset to 120 seconds and the process repeated. Thus, during a 90 min. test session, the rats can earn a maximum of 45 pellets. The behavioral chamber is also equipped with a water bottle that is weighed before and after the session to determine the amount of water consumed.
Administer test compounds on Tuesdays and Fridays. Determine control day performances on Thursdays. Administer compounds either orally at 60 min. before the beginning of a test session, or subcutaneously at 20 min. before the beginning of a test session. Compare the rates of lever pressing and water consumption for each animal's performance during sessions after test compound treatment with that animal's performance during control sessions, expressed as a percent of the control rate. Average the individual percent of control rates for each dose and calculate the standard error of the mean.
The in vivo efficacy of 5HT2C compounds at the 5HT2C receptor was confirmed by the prevention of effects of the 5HT2C agonists on excessive drinking by co-administration of the 5HT2C receptor antagonist, 6-chloro-5-methyl-N-(2-(2-methylpyridin-3-yl-oxy)pyridin-5-yl)aminocarbonyl)-2,3-dihydroindole.

male NIH Swiss mice [4] = assay: Nestlet shredding; format: in vivo, mouse; settings: 30 min.
Excerpt: Mice naturally will construct nests of material available in their living environment. Since this behavior is obsessive in nature, it has been used to model OCD (Mia Li, Denise Morrow and Jeffrey M. Witkin, “Decreases in nestlet shredding of mice by serotonin uptake inhibitors: comparison with marble burying”, Psychopharmacology, submitted Jul. 14, 2003). House experimentally-naïve male, NIH Swiss mice (Harlan Sprague-Dawley, Indianapolis, Ind.) weighing between 28-35 g in groups of 12 for at least three days prior to testing in a vivarium with a 12 hr. light/dark cycle. Conduct experiments during the light cycle in an experimental room with normal overhead fluorescent lighting. Dose mice with vehicle or test compound and after a specified pretreatment interval (generally 30 min.), place the mice individually in a 17×28×12 cm high plastic tub with about 5 mm sawdust shavings on the floor along with a pre-weighed multi-ply gauze pad (51 mm square). After 30 min., weigh the remainder of the gauze pad not removed by the mouse. Determine the weight of the gauze used for nestlet construction by subtraction. Compare the results for test compound treated mice to the results for vehicle control treated mice with Dunnett's test.
Clinically effective OCD treatment standard compounds suppress nestlet shredding at doses that are devoid of motor-impairing effects as measured by the rotorod test. […]

## FC(F)(F)CNc1c(Cl)ccc2c1CCNCC2
other
  melting point: 183 to 185.2 °C

## CN(C)CCCN1c2ccccc2CCc2ccc(Cl)cc21 [chlomipramine]
Wistar rats [1]
  schedule-induced polydipsia, clinically effective OCD treatment standard compounds: suppress schedule-induced polydipsia without producing notable changes in motor patterns, food intake, or behavior the following day

## CN(C)CCCN1c2ccccc2Sc2ccc(Cl)cc21 [chlorpromazine, reference compound]
Male NIH Swiss mice [2]
  marble burying behavior (relative to rotorod performance): decreased marble burying only at doses that also disrupt rotorod performance

## C[C@H](N)Cc1ccccc1 [d-amphetamine, reference compound]
Wistar rats [3]; food restricted rats, 90 min. test session
  schedule-induced polydipsia (excessive drinking): decreases excessive drinking only at behaviorally stimulating doses
Wistar rats [3]; rats
  suppression of excessive drinking with co-administration of the 5-HT2C receptor antagonist: not prevented
Male NIH Swiss mice [4]
  nestlet shredding (relative to motor effects, rotorod test): decrease nestlet shredding only at doses that produce motoric side effects

## CNCCC(Oc1ccc(C(F)(F)F)cc1)c1ccccc1 (stereo not shown) [fluoxetine]
Wistar rats [1]
  schedule-induced polydipsia, clinically effective OCD treatment standard compounds: suppress schedule-induced polydipsia without producing notable changes in motor patterns, food intake, or behavior the following day
